Biological target: methionyl-tRNA synthetase (Trypanosoma brucei brucei)
Assay: T. brucei MetRS inhibitors, late-stage follow-up, biochemical, luminescence, dose response, round 2 (AID 743300)
Settings: T. brucei MetRS enzyme, luminescence read-out

Question: Which IC50 does the source give for `CCN(CC)C(=O)C(=O)c1cn(CC(=O)Nc2cccc(C(F)(F)F)c2)c2ccccc12` here?
Answer: 99.5 nM

— PubChem BioAssay AID743300 (The Scripps Research Institute Molecular Screening Center, 2014)
